The values below come from patent US7135480B2, “Substituted 1-benzoyl-3-cyano-pyrrolo [1,2-a] quinolines and analogs as activators of caspases and inducers of apoptosis” (Cytovia, Inc., priority 2002, dated 2006).

Each structure is given as a SMILES string. Where two headings read alike, the source gives them in different places.

The subject of test [1] is T-47D. The experiment in a line: Inhibition of cell proliferation (GI50, CellTiter 96 AQueous One Solution) in T-47D cells. Format: cell-based, Human. As to conditions: read-out: GI50 (dose for 50% inhibition of cell proliferation). Here is the method:
(§1) T-47D and SKBr-3 cells were grown and harvested as in Example 84. An aliquot of 90 μL of cells (2.2×10^4 cells/mL) was added to a well of a 96-well microtiter plate containing 10 μl of a 10% DMSO in RPMI-1640 media solution containing 1 nM to 100 μM of 1-benzoyl-3-cyano-pyrrolo[1,2-a]quinoline (0.1 nM to 10 μM final). An aliquot of 90 μL of cells was added to a well of a 96-well microtiter plate containing 10 μL of a 10% DMSO in RPMI-1640 media solution without compound as the control sample for maximal cell proliferation (AMax). The samples were mixed by agitation and then incubated at 37° C. for 48 h in a 5% CO2–95% humidity incubator. After incubation, the samples were removed from the incubator and 20 μL of CellTiter 96 AQUEOUS One Solution Cell Proliferation™ reagent (Promega) was added. The samples were mixed by agitation and incubated at 37° C. for 2–4 h in a 5% CO2–95% humidity incubator. Using an absorbance plate reader (Model 1420 Wallac Instruments), an initial reading (T=0) was made approximately 1–2 min after addition of the solution, employing absorbance at 490 nm. This determines the possible background absorbance of the test compounds. No absorbance for 1-benzoyl-3-cyano-pyrrolo[1,2-a]quinoline was found at 490 nm. After the 2–4 h incubation, the samples were read for absorbance as above (ATest).
(§2) Baseline for GI50 (dose for 50% inhibition of cell proliferation) of initial cell numbers were determined by adding an aliquot of 90 μL of cells or 90 μL of media, respectively, to wells of a 96-well microtiter plate containing 10 μL of a 10% DMSO in RPMI-1640 media solution. The samples were mixed by agitation and then incubated at 37° C. for 0.5 h in a 5% CO2–95% humidity incubator. After incubation, the samples were removed from the incubator and 20 μL of CellTiter 96 AQUEOUS One Solution Cell Proliferation ™ reagent (Promega) was added. The samples were mixed by agitation and incubated at 37° C. for 2–4 h in a 5% CO2–95% humidity incubator. Absorbance was read as above, (AStart) defining absorbance for initial cell number used as baseline in GI50 determinations. […]

Another test relates to ZR-75-1. The experiment in a line: Caspase cascade activation assay (N-(Ac-DEVD)-N'-ethoxycarbonyl-R110 fluorogenic substrate) in ZR-75-1 cells. The test is classed as cell-based, Human. As to conditions: for EC50: read-out: Caspase potency EC50; for Caspase activity (Ratio): ratio of net RFU of compound to control, 0.16 to 10 μM final. Here is the method: (§3) Human breast cancer cell lines T-47D and ZR-75-1 were grown according to media component mixtures designated by American Type Culture Collection +10% FCS (Invitrogen Corporation), in a 5% CO2–95% humidity incubator at 37° C. T-47D and ZR-75-1 cells were maintained at a cell density between 30 and 80% confluency and for HL-60 at a cell density of 0.1 to 0.6×10^6 cells/mL. Cells were harvested at 600×g and resuspended at 0.65×10^6 cells/mL into appropriate media +10% FCS. An aliquot of 45 μL of cells was added to a well of a 96-well microtiter plate containing 5 μL of a 10% DMSO in RPMI-1640 media solution containing 1.6 to 100 μM of 1-benzoyl-3-cyano-pyrrolo[1,2-a]quinoline or other test compound (0.16 to 10 μM final). An aliquot of 45 μL of cells was added to a well of a 96-well microtiter plate containing 5 μL of a 10% DMSO in RPMI-1640 media solution without test compound as the control sample. The samples were mixed by agitation and then incubated at 37° C. for 24 h in a 5% CO2–95% humidity incubator. After incubation, the samples were removed from the incubator and 50 μL of a solution containing 20 μM of N-(Ac-DEVD)-N′-ethoxycarbonyl-R110 fluorogenic substrate (SEQ ID NO:1) (Cytovia, Inc.; U.S. Pat. No. 6,335,429), 20% sucrose (Sigma), 20 mM DTT (Sigma), 200 mM NaCl (Sigma), 40 mM Na PIPES buffer pH 7.2 (Sigma), and 500 μg/mL lysolecithin (Calbiochem) was added. The samples were mixed by agitation and incubated at room temperature. Using a fluorescent plate reader (Model 1420 Wallac Instruments), an initial reading (T=0) was made approximately 1–2 min after addition of the substrate solution, employing excitation at 485 nm and emission at 530 nm, to determine the background fluorescence of the control sample. After approximately 3 h of incubation, the samples were read for fluorescence as above (T=3 h).
(§4) The Relative Fluorescence Unit values (RFU) were used to calculate the sample readings as follows: RFU(T=3h)−Control RFU(T=0)=Net RFU(T=3h)
(§5) The activity of caspase cascade activation was determined by the ratio of the net RFU value for 1-benzoyl-3-cyano-pyrrolo[1,2-a]quinoline to that of control samples. The EC50 (nM) was determined by a sigmoidal dose-response calculation (Prism 2.0, GraphPad Software Inc.).

The next test concerns SKBr-3. The experiment in a line: Inhibition of cell proliferation (GI50, CellTiter 96 AQueous One Solution) in SKBr-3 cells. As to conditions: read-out: GI50 (dose for 50% inhibition of cell proliferation). The test is classed as cell-based. Here is the method: as §1, §2
In test [2] the test system is T-47D. The experiment in a line: Caspase cascade activation assay (N-(Ac-DEVD)-N'-ethoxycarbonyl-R110 fluorogenic substrate) in T-47D cells. As to conditions: for EC50: read-out: Caspase potency EC50; for Caspase activity (Ratio): ratio of net RFU of compound to control, 0.16 to 10 μM final. The test is classed as cell-based, Human. Here is the method: as §3, §4, §5

Where [3] appears, read: Homo sapiens, ZR-75-1, 24 h incubation, sigmoidal dose-response.
[4] abbreviates: Homo sapiens, T47D, T-47D, 24 h incubation, sigmoidal dose-response.

Take `COc1cccc(C(=O)c2cc(C#N)c3ccc4ccccc4n23)c1` [Example 4, 3-Cyano-1-(3-methoxy-benzoyl)-pyrrollo[1,2-a]quinoline]: the GI50 in the test with T-47D [1] (T-47D, 48 h incubation) is 0.138 µM; in the test with SKBr-3 (SKBR-3, 48 h incubation), 0.093 µM. The EC50 in the test with ZR-75-1 (ZR-75-1, 24 h incubation, sigmoidal dose-response) is 0.624 µM; in the test with T-47D [2] (T-47D, 24 h incubation, sigmoidal dose-response), 0.463 µM. The “Caspase activity (Ratio)” value with ZR-75-1 (ZR-75-1, 24 h incubation) came out at 10; with T-47D [2] (T-47D, 24 h incubation), 12.
`COc1ccc(C(=O)c2cc(C#N)c3ccc4ccccc4n23)cc1` [Example 7, 3-Cyano-1-(4-methoxy-benzoyl)-pyrrolo[1,2-a]quinoline]: the EC50 worked out at 0.185 µM in the test with ZR-75-1 (setting [3]) and 0.351 µM in the test with T-47D [2] (setting [4]). The “Caspase activity (Ratio)” value was found to be 17 in the test with ZR-75-1 (ZR-75-1, 24 h incubation) and 13 in the test with T-47D [2] (T-47D, 24 h incubation).
For `N#Cc1cc(C(=O)c2ccc(N)cc2)n2c1ccc1ccccc12` [Example 11, 1-(4-Amino-benzoyl)-3-cyano-pyrrolo[1,2-a]quinoline], in that order: 0.147 µM, 0.148 µM, 15 and 17.
For the compound `N#Cc1cc(C(=O)c2ccccc2)n2ccccc12` [Example 3, 3-Benzoyl-1-cyano-indolizine], the EC50 in the test on ZR-75-1 (setting [3]) and in the test on T-47D [2] (setting [4]) was more than 10 µM each time. The “Caspase activity (Ratio)” value with ZR-75-1 (ZR-75-1, 24 h incubation) is 1; in the test with T-47D [2] (T-47D, 24 h incubation), 1.
As to `Cc1ccc(C(=O)c2cc(C#N)c3ccc4ccccc4n23)cc1` [Example 6, 3-Cyano-1-(4-methyl-benzoyl)-pyrrolo[1,2-a]quinoline], the EC50 in the test with ZR-75-1 (setting [3]) stood at 1.4 µM; with T-47D [2] (setting [4]) it was 2.41 µM. In addition, the “Caspase activity (Ratio)” value in the test on ZR-75-1 (ZR-75-1, 24 h incubation) is 14; with T-47D [2] (T-47D, 24 h incubation), 12.
For `N#Cc1cc(C(=O)c2ccc([N+](=O)[O-])cc2)n2c1ccc1ccccc12` [Example 10, 3-Cyano-1-(4-nitro-benzoyl)-pyrrolo[1,2-a]quinoline], in that order: 1.26 µM, 2.19 µM, 14 and 6.
For `Cc1cc2c(C#N)cc(C(=O)c3ccccc3)n2c2ccccc12` [Example 12, 1-Benzoyl-3-cyano-5-methyl-pyrrolo[1,2-a]quinoline], in that order: 0.493 µM, 1.16 µM, 13 and 14.
Regarding `N#Cc1cc(C(=O)c2ccccc2)n2c1ccc1ccccc12` [Example A, 1-benzoyl-3-cyano-pyrrolo[1,2-a]quinoline], the GI50 in the test on T-47D [1] (Homo sapiens, T47D, 48 h) came out at 0.03 µM; in the test with SKBr-3 (Homo sapiens, SK-BR-3, 48 h), 0.032 µM. Moreover, the EC50 in the test with ZR-75-1 (Homo sapiens, ZR-75-1, 24 h) amounted to 0.243 µM; with T-47D [2] (Homo sapiens, T47D, 24 h), 0.242 µM. Also, the “Caspase activity (Ratio)” value in the test on ZR-75-1 (ZR-75-1, 24 h incubation) was determined as 10; in the test with T-47D [2] (T-47D, 24 h incubation), 7.
On to `N#Cc1cc(C(=O)c2ccc(Cl)cc2)n2c1ccc1ccccc12` [Example 8, 1-(4-Chloro-benzoyl)-3-cyano-pyrrolo[1,2-a]quinoline], for which the results for the EC50 in the test with ZR-75-1 (setting [3]) and in the test with T-47D [2] (setting [4]) were 2.58 µM and 0.587 µM, respectively. The “Caspase activity (Ratio)” value with ZR-75-1 (ZR-75-1, 24 h incubation) is 11; in the test with T-47D [2] (T-47D, 24 h incubation), 12.
For `N#Cc1cc(C(=O)c2ccccc2)n2c3c(ccc12)CCCC3` [Example 2, 1-Benzoyl-3-cyano-6,7,8,9-tetrahydro-pyrrolo[1,2-a]quinoline], in that order: 5.3 µM, more than 10 µM, 2 and 1.
For `Cc1ccc2c(ccc3c(C#N)cc(C(=O)c4ccccc4)n32)c1` [Example 13, 1-Benzoyl-3-cyano-7-methyl-pyrrolo[1,2-a]quinoline], in that order: 5.64 µM, more than 10 µM, 2 and 1.
With `N#Cc1cc(C(=O)c2ccc(F)cc2)n2c1ccc1ccccc12` [Example 9, 3-Cyano-1-(4-fluoro-benzoyl)-pyrrolo[1,2-a]quinoline], the EC50 in the test on ZR-75-1 (setting [3]) and in the test on T-47D [2] (setting [4]) was 0.15 µM in each case. Besides, the “Caspase activity (Ratio)” value in the test with ZR-75-1 (ZR-75-1, 24 h incubation) came to 12; with T-47D [2] (T-47D, 24 h incubation) it was 12.
For the compound `N#Cc1cc(C(=O)c2cccc(Br)c2)n2c1ccc1ccccc12` [Example 5, 1-(3-Bromo-benzoyl)-3-cyano-pyrrolo[1,2-a]quinoline], the EC50 in the test on ZR-75-1 (setting [3]) worked out at 0.159 µM. Also, in the test on ZR-75-1 (ZR-75-1, 24 h incubation), the “Caspase activity (Ratio)” value is recorded as 11.
In the case of `N#Cc1cc(C(=O)c2ccc(N3CCCC3)cc2)n2c1ccc1ccccc12` [Example 1, 3-Cyano-1-(4-pyrrolidin-1-yl-benzoyl)-pyrrolo[1,2-a]quinoline], the GI50 with T-47D [1] (Homo sapiens, T47D, T-47D, 48 h incubation) stood at 0.036 µM; with SKBr-3 (Homo sapiens, SK-BR-3, SKBR-3, 48 h incubation), 0.042 µM. For the same compound, the figures for the EC50 with ZR-75-1 (setting [3]) and with T-47D [2] (setting [4]) were 0.133 µM and 0.157 µM, respectively. Also, the “Caspase activity (Ratio)” value was 7 in the test on ZR-75-1 (ZR-75-1, 24 h incubation) and 10 in the test with T-47D [2] (T-47D, 24 h incubation).
